Values of other authors in US12171869B2, “Intracameral drug delivery depots” (Incept, LLC., priority 2016, dated 2024).
“And” between values parts separate entries of the source, which are not always exact repeats. Equal values may be shown once.

Key:
[1] = intracameral administration, clinical studies (Charters 2016); 10 μg dose
[2] = eye drop studies in humans (Faulkner et al., 2010; Martinez-de-la-Casa et al., 2012)
beagle = conditions: 0.004% once a day, normal healthy beagles, 5 treatment days (Carvalho et al., 2006)

CCNC(=O)CCC/C=C\C[C@@H]1[C@@H](/C=C/[C@@H](O)CCc2ccccc2)[C@H](O)C[C@@H]1O [bimatoprost]
duration of IOP reduction [1]: up to 4 months

O=C(O)CCC/C=C\C[C@@H]1[C@@H](/C=C/[C@@H](O)COc2cccc(C(F)(F)F)c2)[C@H](O)C[C@@H]1O [travoprost free acid]
travoprost free acid Cmax [2]: ~2 ng/mL and ~3 ng/mL

CC(C)OC(=O)CCC/C=C\C[C@@H]1[C@@H](/C=C/[C@@H](O)COc2cccc(C(F)(F)F)c2)[C@H](O)C[C@@H]1O [travoprost, isopropyl (Z)-7-[(1R,2R,3R,5 S)-3,5-dihydroxy-2-[(1E,3R)-3-hydroxy-4-[(α,α,α-trifluoro-m-tolyl)oxy]-1-butenyl]cyclopentyl]-5-heptenoate]
hyperemia (beagle): hyperemia for the entire treatment period
